How the values were obtained:
Assay in all cases: relative viability (nuclei count vs DMSO), 5 days (fraction); higher = more cells survive
IU1-47 + Pemetrexed = compound: CC1=CC(=C(N1C2=CC=C(C=C2)Cl)C)C(=O)CN3CCCCC3 [IU1-47] + Nc1nc2[nH]cc(CCc3ccc(C(=O)N[C@@H](CCC(=O)O)C(=O)O)cc3)c2c(=O)[nH]1 [Pemetrexed] (partner 0.2 µM)
Outline: (§1)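 Relative viability divides the nuclei count in treated wells by that in vehicle wells. Lung cancer cell lines were seeded in 1536-well plates, dosed by pin tool the next day, and fixed and stained after 5 days in one step with final 0.05% Triton X-100, 1% formaldehyde and 1 ug/ml Hoechst. Dosing was a single drug or a fixed anchor-drug dose plus five library-drug doses (not always all listed) in √10 steps, and values are medians of duplicate plates imaged at 4×.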

FG-4592 + Trametinib = compound: Cc1nc(C(=O)NCC(=O)O)c(O)c2ccc(Oc3ccccc3)cc12 [FG-4592] + CC(=O)Nc1cccc(-n2c(=O)n(C3CC3)c(=O)c3c(Nc4ccc(I)cc4F)n(C)c(=O)c(C)c32)c1 [Trametinib] (partner 0.02 µM)
Outline: as §1

FG-4592 + Foretinib = compound: Cc1nc(C(=O)NCC(=O)O)c(O)c2ccc(Oc3ccccc3)cc12 [FG-4592] + COc1cc2c(Oc3ccc(NC(=O)C4(C(=O)Nc5ccc(F)cc5)CC4)cc3F)ccnc2cc1OCCCN1CCOCC1 [Foretinib] (partner 0.25 µM)
Outline: as §1

FG-4592 + Pemetrexed = compound: Cc1nc(C(=O)NCC(=O)O)c(O)c2ccc(Oc3ccccc3)cc12 [FG-4592] + Nc1nc2[nH]cc(CCc3ccc(C(=O)N[C@@H](CCC(=O)O)C(=O)O)cc3)c2c(=O)[nH]1 [Pemetrexed] (partner 0.2 µM)
Outline: as §1

Cell Line	relative viability (IU1-47 + Pemetrexed; first compound 0.08 µM)	relative viability (IU1-47 + Pemetrexed; first compound 0.253 µM)	relative viability (IU1-47 + Pemetrexed; first compound 0.8 µM)	relative viability (IU1-47 + Pemetrexed; first compound 2.53 µM)	relative viability (IU1-47 + Pemetrexed; first compound 8 µM)	relative viability (FG-4592 + Trametinib; first compound 0.08 µM)	relative viability (FG-4592 + Trametinib; first compound 0.253 µM)	relative viability (FG-4592 + Trametinib; first compound 2.53 µM)	relative viability (FG-4592 + Trametinib; first compound 8 µM)	relative viability (FG-4592 + Foretinib; first compound 0.08 µM)	relative viability (FG-4592 + Foretinib; first compound 0.253 µM)	relative viability (FG-4592 + Foretinib; first compound 0.8 µM)	relative viability (FG-4592 + Foretinib; first compound 2.53 µM)	relative viability (FG-4592 + Foretinib; first compound 8 µM)	relative viability (FG-4592 + Pemetrexed; first compound 0.08 µM)	relative viability (FG-4592 + Pemetrexed; first compound 0.253 µM)	relative viability (FG-4592 + Pemetrexed; first compound 2.53 µM)	relative viability (FG-4592 + Pemetrexed; first compound 8 µM)	relative viability (FG-4592 + Trametinib; first compound 0.8 µM)	relative viability (FG-4592 + Pemetrexed; first compound 0.8 µM)
NCI-H1993	0.631	0.588	0.672	0.346	0.482	0.556	0.516	0.479	0.507	0.783	0.582	0.781	0.828	0.747	0.644	0.48	0.487	0.594	–	–
NCI-H322M	0.662	0.648	0.829	0.582	0.607	–	0.482	0.497	0.438	0.87	0.937	0.903	0.975	0.91	–	0.614	0.546	0.63	0.475	0.613
NCI-H838	0.241	0.233	0.259	0.274	0.246	0.497	0.51	0.473	0.46	1.06	0.922	1.08	1.06	0.969	0.257	0.279	0.244	0.253	0.412	0.227
HARA	0.258	–	0.199	0.26	0.22	–	–	0.586	0.667	0.834	0.87	0.896	0.885	0.878	–	–	0.251	0.24	–	–
NCI-H2087	0.668	0.637	0.693	0.716	0.556	0.224	0.19	–	0.235	1.19	1.02	1.21	1.07	1.11	0.604	0.565	–	0.591	0.198	0.658
NCI-H1437	0.336	0.336	0.314	0.308	0.311	0.539	0.414	0.47	0.301	1.24	1.19	1.29	1.3	1.04	0.32	0.31	0.32	0.274	0.473	0.349
NCI-H2342	0.794	0.782	0.942	0.825	0.693	0.755	0.841	0.738	0.641	1	1.01	1.06	0.959	0.993	0.682	0.767	0.8	0.738	0.746	0.77
ChaGo-K-1	0.26	0.257	0.282	0.249	0.268	0.953	0.79	0.846	0.931	0.997	0.834	0.919	0.973	0.897	0.266	0.258	0.26	0.274	0.899	0.26
NCI-H650	1.01	1.1	0.965	0.878	1	1.06	0.936	1	0.838	0.997	0.961	0.882	0.991	0.861	0.978	0.871	0.812	0.726	0.916	0.848
COR-L23	0.212	0.18	0.199	0.195	0.208	0.678	0.519	0.508	0.355	0.856	0.832	1.03	0.982	0.991	0.205	0.204	0.194	0.187	0.608	0.171
COR-L 105	1.12	1.17	0.93	1.12	1.02	0.45	0.461	0.434	0.397	0.817	1.06	1.2	0.96	0.718	1.03	0.92	1.14	0.877	0.445	1.13
LK-2	0.327	0.308	0.3	0.306	0.156	0.599	0.661	0.621	0.516	1.17	0.95	–	1.19	0.993	0.26	0.277	0.239	0.268	0.628	–
201T	0.458	0.386	0.317	0.261	0.389	0.691	0.695	0.772	0.708	1.11	1.04	–	1.15	1.07	0.355	0.331	0.29	0.308	0.719	0.305
NCI-H596	0.491	–	0.494	0.508	0.446	0.861	0.804	0.842	0.564	0.814	0.617	0.764	0.867	0.465	0.455	0.521	0.538	0.457	–	–
H3255	0.624	0.544	0.63	0.605	0.511	0.6	0.547	0.602	0.532	0.848	0.752	0.881	0.903	0.947	0.586	0.538	0.573	0.56	0.5	0.567
NCI-H647	0.155	0.189	0.182	0.166	0.159	0.444	0.453	0.448	0.333	1.19	1.07	1.18	0.815	0.782	0.165	0.14	0.161	0.15	0.336	0.211
NCI-H2023	0.22	0.232	0.246	0.208	0.204	0.488	0.595	0.593	0.506	0.792	0.79	0.885	0.854	0.742	0.228	0.198	0.232	0.217	0.612	0.244

Cell Line	relative viability (IU1-47 + Pemetrexed; first compound 0.08 µM)	relative viability (IU1-47 + Pemetrexed; first compound 0.253 µM)	relative viability (IU1-47 + Pemetrexed; first compound 0.8 µM)	relative viability (IU1-47 + Pemetrexed; first compound 2.53 µM)	relative viability (IU1-47 + Pemetrexed; first compound 8 µM)	relative viability (FG-4592 + Trametinib; first compound 0.08 µM)	relative viability (FG-4592 + Trametinib; first compound 0.253 µM)	relative viability (FG-4592 + Trametinib; first compound 2.53 µM)	relative viability (FG-4592 + Trametinib; first compound 8 µM)	relative viability (FG-4592 + Foretinib; first compound 0.08 µM)	relative viability (FG-4592 + Foretinib; first compound 0.253 µM)	relative viability (FG-4592 + Foretinib; first compound 0.8 µM)	relative viability (FG-4592 + Foretinib; first compound 2.53 µM)	relative viability (FG-4592 + Foretinib; first compound 8 µM)	relative viability (FG-4592 + Pemetrexed; first compound 0.08 µM)	relative viability (FG-4592 + Pemetrexed; first compound 0.253 µM)	relative viability (FG-4592 + Pemetrexed; first compound 2.53 µM)	relative viability (FG-4592 + Pemetrexed; first compound 8 µM)	relative viability (FG-4592 + Trametinib; first compound 0.8 µM)	relative viability (FG-4592 + Pemetrexed; first compound 0.8 µM)
NCI-H23	0.608	–	0.59	0.708	0.692	0.381	0.38	0.394	0.327	1.01	0.856	0.973	0.999	0.966	0.567	0.562	0.534	0.793	0.37	0.644
NCI-H1944	0.652	0.778	0.751	0.734	0.58	0.426	0.409	0.422	0.371	0.928	0.816	0.941	0.85	0.934	0.608	0.703	0.602	0.606	0.464	0.567
NCI-H1793	0.691	–	0.802	0.798	0.629	–	0.453	0.434	0.4	0.739	0.71	–	0.593	0.554	–	0.95	0.833	0.782	–	–
NCI-H520	0.548	0.711	0.831	0.847	0.577	0.594	0.557	0.719	0.473	0.497	0.639	0.674	0.868	0.605	0.62	0.766	0.8	0.698	0.573	0.774
NCI-H460	0.0569	0.0572	0.0551	0.0515	0.0695	0.163	0.13	0.0958	0.129	0.986	1.04	1.04	1.03	1.03	0.0673	0.0639	0.0799	0.0618	0.127	0.058
EKVX	0.407	0.406	0.423	–	0.453	0.318	0.352	0.332	0.24	0.744	0.804	0.773	0.717	1.04	0.346	0.36	0.377	0.515	0.334	0.376
NCI-H358	0.156	0.169	0.172	0.184	0.165	0.138	0.135	0.16	0.124	0.732	0.632	0.85	0.535	0.632	0.169	0.165	0.176	0.179	0.122	0.164
EPLC-272H	0.332	0.422	0.316	0.327	0.313	0.288	0.232	0.303	0.308	0.755	0.738	0.521	0.706	0.641	0.321	0.223	0.353	0.377	0.234	0.319
NCI-H1395	0.888	0.853	0.747	0.508	0.738	0.961	1.01	1.03	0.773	1.06	0.889	0.981	0.997	0.963	0.877	0.859	0.768	0.671	0.936	0.528
NCI-H2126	0.69	0.741	0.704	0.49	0.733	0.586	0.576	0.534	0.476	1.14	1.13	1.16	1.09	1.15	0.701	0.583	0.609	0.696	0.455	0.656
LXF-289	0.888	0.886	0.851	0.945	0.856	0.676	0.68	0.712	0.731	0.97	0.981	0.993	0.974	1.12	0.853	0.906	0.883	0.948	0.682	1.02
NCI-H2009	1.1	1.05	1.01	1.08	1.05	0.32	0.181	0.31	0.162	1.21	1.11	1.13	1.14	1.11	1.01	1.16	1.02	1.06	0.262	1
SW 900	0.478	–	0.495	0.472	0.383	–	0.819	0.871	0.619	0.823	0.947	1.08	1.17	0.833	–	0.48	0.493	0.487	–	–
NCI-H2405	1.05	1.1	1.05	1.02	1.09	0.548	0.57	0.587	0.411	0.962	–	1.03	1.02	1.14	0.81	1.01	0.792	0.984	0.507	0.949
NCI-H1755	0.434	0.439	0.825	0.454	0.445	0.792	0.74	0.827	0.725	0.907	0.905	0.857	0.929	0.921	0.417	0.483	0.4	0.453	0.729	0.46
HCC-78	0.898	0.889	0.929	0.865	0.862	0.719	–	0.578	0.743	0.556	0.561	0.52	0.541	0.576	0.941	–	0.871	0.909	0.741	0.901
LOU-NH91	0.389	0.386	0.526	0.38	0.35	0.807	0.766	0.773	0.748	0.971	0.879	0.917	0.868	0.91	0.465	0.336	0.405	0.407	0.724	0.468

Source: the supplement of paper PMC10307832
